Measured values: patent publication US20240277790A1, “RECOMBINANT BACULOVIRUSES, ALPHAVIRUS VIRUS-LIKE REPLICON PARTICLES PRODUCED THEREOF AND THEIR USES” (priority 2023, published 2024)

System: mos-CHIK-VRPs
Test: VRP-based antiviral drug assay (luciferase) on Vero cells
Format: cell-based, CHIKV
Details: Chikungunya virus, Vero cells, 2,500 IU VRPs/well, 1 hour + 5 hours at 34° C., read-out: IC50 of inhibition of VRP infection
Description: Luciferase activity in the mos-CHIK-VRPs infected Vero cells was measured using a commercial luciferase assay kit (Promega) in accordance with the manufacturer's instructions. Signals reflecting the luciferase activity was read by a microplate reader (BioTek).
Suramin and 6-azauridine (6-AU) (both from Sigma-Aldrich) were dissolved in water to prepare the stock solutions (suramin, 50 mg/ml, 35 mM; 6-AU, 50 mg/ml, 200 mM) and then stored at −20° C. until use. Vero cells were seeded at a density of 1.5×10^4 cells/well (96 well white/clear bottom plate), and then infected with 2,500 IU VRPs/well in the presence of serially diluted suramin or 6-AU in MEM for 1 hour at 34° C. The suramin- or 6-AU-treated cells were then grown in a 5% FBS medium containing the corresponding concentrations of suramin or 6-AU for another 5 hours at 34° C., then VRP activity was measured by luciferase assay.

Row | Compound | IC50
1 | O=c1cnn([C@@H]2O[C@H](CO)[C@@H](O)[C@H]2O)c(=O)[nH]1 [6-AU, 6-azauridine] | 1.29 µg/mL
2 | Cc1ccc(C(=O)Nc2ccc(S(=O)(=O)O)c3cc(S(=O)(=O)O)cc(S(=O)(=O)O)c23)cc1NC(=O)c1cccc(NC(=O)Nc2cccc(C(=O)Nc3cc(C(=O)Nc4ccc(S(=O)(=O)O)c5cc(S(=O)(=O)O)cc(S(=O)(=O)O)c45)ccc3C)c2)c1 [suramin] | 81.3 µM
